From ChEMBL document CHEMBL5465560, “Selectivity Literature for EUbOPEN Chemogenomic Library” (2024)

Key:
[1] = molecular target: Type-1 angiotensin II receptor (Homo sapiens) (UniProt P30556); experiment: Selectivity interaction (Eurofins CEREP Diversity Profile (receptors and ion channels)) EUB0000279b AGTR1; conditions: at 10 µM
[2] = molecular target: Calcium/calmodulin-dependent protein kinase kinase 2 (Homo sapiens) (UniProt Q96RR4); experiment: Selectivity interaction (ActivX KiNativ screen (kinase selectivity in THP-1 cell lysates)) EUB0000639a CAMKK2; type: subcellular; conditions: lysate, at 5 µM
Calcium/calmodulin-dependent protein kinase kinase 2 (Homo sapiens), sequence (Q96RR4 2-588 limits assumed): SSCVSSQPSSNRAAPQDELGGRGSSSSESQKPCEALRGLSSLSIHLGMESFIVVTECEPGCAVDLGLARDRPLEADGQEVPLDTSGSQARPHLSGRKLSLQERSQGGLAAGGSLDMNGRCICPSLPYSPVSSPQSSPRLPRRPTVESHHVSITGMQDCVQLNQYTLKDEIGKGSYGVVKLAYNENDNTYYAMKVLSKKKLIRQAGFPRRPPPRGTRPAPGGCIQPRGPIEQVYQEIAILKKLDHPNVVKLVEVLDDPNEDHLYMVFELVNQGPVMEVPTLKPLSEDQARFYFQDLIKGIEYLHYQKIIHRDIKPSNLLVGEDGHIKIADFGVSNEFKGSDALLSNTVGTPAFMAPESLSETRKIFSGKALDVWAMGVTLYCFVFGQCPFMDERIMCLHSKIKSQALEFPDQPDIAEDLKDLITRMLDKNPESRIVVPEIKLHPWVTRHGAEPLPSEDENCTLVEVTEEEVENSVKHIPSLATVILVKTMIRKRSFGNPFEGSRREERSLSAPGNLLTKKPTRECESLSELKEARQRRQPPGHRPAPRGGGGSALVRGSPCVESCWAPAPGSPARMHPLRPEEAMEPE

[3] = molecular target: T1, Serine/threonine-protein kinase TBK1 (Homo sapiens) (UniProt Q9UHD2); experiment: Selectivity interaction (Kinase panel (Invitrogen)) EUB0000639a TBK1; conditions: at 200 nM
T1 sequence (whole entry): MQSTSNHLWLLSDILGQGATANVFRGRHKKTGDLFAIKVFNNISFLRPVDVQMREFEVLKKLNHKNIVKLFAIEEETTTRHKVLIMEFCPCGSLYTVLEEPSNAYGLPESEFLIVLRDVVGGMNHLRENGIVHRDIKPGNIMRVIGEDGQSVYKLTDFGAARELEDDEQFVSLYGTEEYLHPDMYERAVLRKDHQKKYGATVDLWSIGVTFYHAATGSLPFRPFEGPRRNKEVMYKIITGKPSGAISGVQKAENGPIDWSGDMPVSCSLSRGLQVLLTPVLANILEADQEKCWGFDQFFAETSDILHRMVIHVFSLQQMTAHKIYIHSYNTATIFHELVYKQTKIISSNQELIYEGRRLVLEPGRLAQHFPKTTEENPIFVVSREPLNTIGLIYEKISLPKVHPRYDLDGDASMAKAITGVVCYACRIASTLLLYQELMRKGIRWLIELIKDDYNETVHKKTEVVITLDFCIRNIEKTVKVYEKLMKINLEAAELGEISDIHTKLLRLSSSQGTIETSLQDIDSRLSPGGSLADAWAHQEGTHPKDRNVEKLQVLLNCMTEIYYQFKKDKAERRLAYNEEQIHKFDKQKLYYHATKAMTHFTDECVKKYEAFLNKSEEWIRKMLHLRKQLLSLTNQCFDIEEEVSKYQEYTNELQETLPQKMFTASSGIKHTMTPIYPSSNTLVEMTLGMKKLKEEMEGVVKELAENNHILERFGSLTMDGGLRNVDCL

[4] = molecular target: Serine/threonine-protein kinase pim-3 (Homo sapiens) (UniProt Q86V86); experiment: Selectivity interaction (KinomeScan (DiscoverX)) EUB0000595a PIM3; conditions: at 10 µM
[5] = molecular target: BDNF/NT-3 growth factors receptor (Homo sapiens) (UniProt Q16620); experiment: Selectivity interaction (KinomeScan (DiscoverX)) EUB0000595a NTRK2; conditions: at 10 µM
BDNF/NT-3 growth factors receptor (Homo sapiens), sequence (Q16620 32-822 limits assumed): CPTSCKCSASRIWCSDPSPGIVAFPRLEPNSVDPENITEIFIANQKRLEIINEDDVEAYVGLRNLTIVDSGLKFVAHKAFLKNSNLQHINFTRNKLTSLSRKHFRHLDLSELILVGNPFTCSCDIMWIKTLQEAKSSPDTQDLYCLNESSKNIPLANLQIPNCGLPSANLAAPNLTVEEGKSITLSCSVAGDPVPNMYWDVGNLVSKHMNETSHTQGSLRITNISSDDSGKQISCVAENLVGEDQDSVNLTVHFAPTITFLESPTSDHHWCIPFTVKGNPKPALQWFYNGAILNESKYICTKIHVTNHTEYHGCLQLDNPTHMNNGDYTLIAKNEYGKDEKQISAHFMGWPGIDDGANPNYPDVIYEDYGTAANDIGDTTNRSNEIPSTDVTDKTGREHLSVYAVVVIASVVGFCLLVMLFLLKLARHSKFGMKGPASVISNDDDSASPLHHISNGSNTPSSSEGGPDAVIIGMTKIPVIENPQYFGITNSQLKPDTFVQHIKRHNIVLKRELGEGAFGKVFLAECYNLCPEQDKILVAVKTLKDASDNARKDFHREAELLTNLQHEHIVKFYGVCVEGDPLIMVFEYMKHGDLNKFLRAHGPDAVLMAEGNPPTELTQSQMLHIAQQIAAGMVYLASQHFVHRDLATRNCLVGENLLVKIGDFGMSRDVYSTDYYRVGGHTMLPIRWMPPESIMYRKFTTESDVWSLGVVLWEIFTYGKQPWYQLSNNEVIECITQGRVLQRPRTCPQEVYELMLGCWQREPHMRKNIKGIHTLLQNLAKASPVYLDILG

[6] = molecular target: T2, Activin receptor type-1 (Homo sapiens) (UniProt Q04771); experiment: Selectivity interaction (KinomeScan (DiscoverX)) EUB0000045b ACVR1
T2 sequence (whole entry): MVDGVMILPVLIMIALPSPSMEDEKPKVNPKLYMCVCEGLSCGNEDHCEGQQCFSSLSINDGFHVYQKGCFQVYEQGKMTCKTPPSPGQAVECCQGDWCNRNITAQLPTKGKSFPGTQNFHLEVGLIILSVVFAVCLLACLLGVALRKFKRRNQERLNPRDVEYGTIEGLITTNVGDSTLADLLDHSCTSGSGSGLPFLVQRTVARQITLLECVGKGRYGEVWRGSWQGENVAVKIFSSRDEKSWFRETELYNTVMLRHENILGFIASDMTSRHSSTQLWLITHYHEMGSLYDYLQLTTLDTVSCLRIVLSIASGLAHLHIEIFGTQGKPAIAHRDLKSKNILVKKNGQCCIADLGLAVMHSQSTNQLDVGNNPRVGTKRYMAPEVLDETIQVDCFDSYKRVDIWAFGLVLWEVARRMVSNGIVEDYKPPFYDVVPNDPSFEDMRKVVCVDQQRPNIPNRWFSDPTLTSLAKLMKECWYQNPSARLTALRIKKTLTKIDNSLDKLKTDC

[7] = molecular target: Insulin receptor-related protein (Homo sapiens) (UniProt P14616); experiment: Selectivity interaction (KinomeScan (DiscoverX)) EUB0000045b INSRR
Insulin receptor-related protein (Homo sapiens), sequence (P14616 27-742 limits assumed): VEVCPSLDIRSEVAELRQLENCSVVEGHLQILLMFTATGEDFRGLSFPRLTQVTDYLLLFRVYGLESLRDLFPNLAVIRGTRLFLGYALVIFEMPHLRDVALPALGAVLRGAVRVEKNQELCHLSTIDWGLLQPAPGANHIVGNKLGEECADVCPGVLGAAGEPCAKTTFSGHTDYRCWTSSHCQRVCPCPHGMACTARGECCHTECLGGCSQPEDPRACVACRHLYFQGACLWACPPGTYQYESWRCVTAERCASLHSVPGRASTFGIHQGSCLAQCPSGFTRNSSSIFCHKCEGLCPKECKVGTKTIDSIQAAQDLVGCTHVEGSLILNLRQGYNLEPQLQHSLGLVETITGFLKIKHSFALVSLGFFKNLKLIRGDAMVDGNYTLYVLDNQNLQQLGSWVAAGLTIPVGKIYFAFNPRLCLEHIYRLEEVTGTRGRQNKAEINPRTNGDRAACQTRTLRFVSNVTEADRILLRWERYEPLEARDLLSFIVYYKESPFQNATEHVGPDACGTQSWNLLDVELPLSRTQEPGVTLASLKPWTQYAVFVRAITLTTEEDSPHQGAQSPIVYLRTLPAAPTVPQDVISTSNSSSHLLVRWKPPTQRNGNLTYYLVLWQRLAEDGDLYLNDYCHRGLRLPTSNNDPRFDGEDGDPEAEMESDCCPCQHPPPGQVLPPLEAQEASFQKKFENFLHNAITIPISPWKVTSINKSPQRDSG
Insulin receptor-related protein (Homo sapiens), sequence (P14616 747-1297 limits assumed): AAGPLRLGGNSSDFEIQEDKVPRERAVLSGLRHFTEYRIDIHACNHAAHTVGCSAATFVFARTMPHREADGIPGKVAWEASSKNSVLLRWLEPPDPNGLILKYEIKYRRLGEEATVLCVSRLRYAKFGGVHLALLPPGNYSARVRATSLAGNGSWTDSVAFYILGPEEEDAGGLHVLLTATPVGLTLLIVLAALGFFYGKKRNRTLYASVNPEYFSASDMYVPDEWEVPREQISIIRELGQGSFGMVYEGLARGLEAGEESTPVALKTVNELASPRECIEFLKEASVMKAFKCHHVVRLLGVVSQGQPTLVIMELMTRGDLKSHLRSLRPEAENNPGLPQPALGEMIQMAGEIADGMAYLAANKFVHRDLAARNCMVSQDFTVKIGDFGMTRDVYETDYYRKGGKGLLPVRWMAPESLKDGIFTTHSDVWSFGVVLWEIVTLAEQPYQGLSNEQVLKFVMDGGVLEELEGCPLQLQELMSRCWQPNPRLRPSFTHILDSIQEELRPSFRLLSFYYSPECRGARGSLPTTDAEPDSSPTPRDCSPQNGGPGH

[8] = molecular target: Cyclin-dependent kinase 9 (Homo sapiens, UniProt P50750); experiment: Selectivity interaction (KinomeScan (DiscoverX)) EUB0000618a CDK9; conditions: at 10 µM
Cyclin-dependent kinase 9, sequence (P50750 whole entry): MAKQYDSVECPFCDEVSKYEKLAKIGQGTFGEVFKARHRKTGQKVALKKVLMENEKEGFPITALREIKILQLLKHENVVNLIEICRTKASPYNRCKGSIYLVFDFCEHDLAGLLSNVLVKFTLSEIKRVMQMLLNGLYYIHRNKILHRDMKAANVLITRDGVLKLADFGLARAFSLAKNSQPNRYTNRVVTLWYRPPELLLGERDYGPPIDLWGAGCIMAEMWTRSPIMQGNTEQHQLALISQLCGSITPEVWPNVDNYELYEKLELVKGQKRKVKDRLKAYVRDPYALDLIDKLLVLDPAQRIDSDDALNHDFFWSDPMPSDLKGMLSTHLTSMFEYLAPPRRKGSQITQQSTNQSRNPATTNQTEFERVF

[9] = molecular target: Serine/threonine-protein kinase 10 (Homo sapiens) (UniProt O94804); experiment: Selectivity interaction (ActivX KiNativ screen (ex vivo kinase selectivity in human PBMCs)) EUB0001619a STK10; type: cell-based; conditions: PBMC, at 1 µM
Serine/threonine-protein kinase 10 (Homo sapiens), sequence (O94804 whole entry, looked up): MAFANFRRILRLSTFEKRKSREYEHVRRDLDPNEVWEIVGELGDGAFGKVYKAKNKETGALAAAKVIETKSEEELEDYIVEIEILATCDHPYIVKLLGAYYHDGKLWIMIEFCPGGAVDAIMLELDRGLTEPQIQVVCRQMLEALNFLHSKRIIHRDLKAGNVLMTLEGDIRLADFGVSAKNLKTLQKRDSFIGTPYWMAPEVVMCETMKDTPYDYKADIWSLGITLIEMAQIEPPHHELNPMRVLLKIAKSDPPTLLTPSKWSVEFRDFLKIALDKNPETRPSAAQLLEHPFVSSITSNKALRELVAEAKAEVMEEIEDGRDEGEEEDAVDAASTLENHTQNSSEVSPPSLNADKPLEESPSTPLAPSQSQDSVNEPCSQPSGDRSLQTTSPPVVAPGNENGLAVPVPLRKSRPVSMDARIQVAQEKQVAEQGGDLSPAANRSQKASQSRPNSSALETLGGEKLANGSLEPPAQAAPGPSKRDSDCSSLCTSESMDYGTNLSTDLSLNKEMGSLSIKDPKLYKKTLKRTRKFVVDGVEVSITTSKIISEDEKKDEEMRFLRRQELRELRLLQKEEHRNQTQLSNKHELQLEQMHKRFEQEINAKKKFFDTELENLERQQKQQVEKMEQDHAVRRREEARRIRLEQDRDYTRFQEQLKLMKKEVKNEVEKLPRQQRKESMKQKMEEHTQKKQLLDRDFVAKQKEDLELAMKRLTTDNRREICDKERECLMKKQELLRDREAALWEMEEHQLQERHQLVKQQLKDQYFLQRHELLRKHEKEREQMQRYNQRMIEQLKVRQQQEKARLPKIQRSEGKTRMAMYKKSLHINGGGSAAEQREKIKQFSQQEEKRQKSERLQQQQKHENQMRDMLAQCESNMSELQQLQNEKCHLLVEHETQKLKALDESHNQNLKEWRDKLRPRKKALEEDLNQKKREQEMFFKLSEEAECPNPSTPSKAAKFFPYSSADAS

[10] = molecular target: T3, TGF-beta receptor type-1 (Homo sapiens) (UniProt P36897); experiment: Selectivity interaction (KinomeScan (DiscoverX)) EUB0000695a TGFBR1; conditions: at 100 nM
T3 sequence (whole entry): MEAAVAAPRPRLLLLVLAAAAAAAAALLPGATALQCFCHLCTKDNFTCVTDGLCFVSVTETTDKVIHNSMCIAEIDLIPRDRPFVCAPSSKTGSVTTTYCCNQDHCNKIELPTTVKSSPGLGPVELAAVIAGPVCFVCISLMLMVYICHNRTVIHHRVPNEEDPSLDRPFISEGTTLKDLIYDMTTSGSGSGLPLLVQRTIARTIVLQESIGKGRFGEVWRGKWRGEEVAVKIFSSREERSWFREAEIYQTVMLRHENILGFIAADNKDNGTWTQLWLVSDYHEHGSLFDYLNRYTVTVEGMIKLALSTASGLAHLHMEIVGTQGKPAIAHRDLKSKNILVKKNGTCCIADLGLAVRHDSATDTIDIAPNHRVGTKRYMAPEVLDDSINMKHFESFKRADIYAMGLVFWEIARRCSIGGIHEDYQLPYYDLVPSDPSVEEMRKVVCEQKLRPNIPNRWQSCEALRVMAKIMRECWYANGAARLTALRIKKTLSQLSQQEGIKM

[11] = molecular target: T4, Activin receptor type-1B (Homo sapiens) (UniProt P36896); experiment: Selectivity interaction (Kinase panel (Z-LYTE Assay)) EUB0001632a ACVR1B; conditions: at 10 µM
T4 sequence (whole entry): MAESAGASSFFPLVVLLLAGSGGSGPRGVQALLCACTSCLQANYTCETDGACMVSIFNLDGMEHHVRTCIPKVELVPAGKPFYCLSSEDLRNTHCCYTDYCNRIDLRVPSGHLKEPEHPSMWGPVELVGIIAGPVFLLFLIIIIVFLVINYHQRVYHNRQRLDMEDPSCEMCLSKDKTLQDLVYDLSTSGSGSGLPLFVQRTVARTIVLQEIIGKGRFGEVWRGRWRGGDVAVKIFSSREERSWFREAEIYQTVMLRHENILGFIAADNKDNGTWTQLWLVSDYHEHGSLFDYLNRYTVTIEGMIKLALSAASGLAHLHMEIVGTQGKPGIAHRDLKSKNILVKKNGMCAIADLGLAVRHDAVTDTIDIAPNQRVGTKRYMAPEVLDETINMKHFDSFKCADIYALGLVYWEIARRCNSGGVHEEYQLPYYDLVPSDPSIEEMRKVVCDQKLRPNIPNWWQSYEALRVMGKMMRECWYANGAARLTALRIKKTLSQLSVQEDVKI

Type-1 angiotensin II receptor (Homo sapiens), sequence (P30556 whole entry): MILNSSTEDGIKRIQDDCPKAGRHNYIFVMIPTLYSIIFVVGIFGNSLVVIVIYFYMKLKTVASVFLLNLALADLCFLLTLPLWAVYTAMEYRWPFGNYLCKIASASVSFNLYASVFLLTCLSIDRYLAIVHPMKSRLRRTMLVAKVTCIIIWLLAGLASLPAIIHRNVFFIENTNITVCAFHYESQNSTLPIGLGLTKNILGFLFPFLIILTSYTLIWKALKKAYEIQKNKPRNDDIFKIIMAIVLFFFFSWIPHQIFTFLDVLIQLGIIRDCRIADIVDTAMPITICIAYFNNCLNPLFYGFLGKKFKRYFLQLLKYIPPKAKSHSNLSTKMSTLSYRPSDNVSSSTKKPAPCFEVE

CC(=O)c1cc(-c2ccccc2OCC2CC2)c2ncccn12
% of control [1]: 91%

CC[C@@H]1[C@H](F)C(=O)N[C@@H]1COc1nccc2cc(C(N)=O)c(OC)cc12 [ZIMLOVISERTIB]
% of inhibition [2]: 56.9%
% of inhibition [3]: 7.67%

COCC(=O)NC/C=C/c1ccc2ncnc(Nc3ccc(Oc4ccc(C)nc4)c(C)c3)c2c1 [CP-724714]
% of control [4]: 100%
% of control [5]: 100%

C=CC(=O)Nc1cc(-n2c(=O)ccc3cnc4ccc(-c5ccc(NS(C)(=O)=O)cc5)cc4c32)ccc1C
% of control ([6]; at 1 µM): 100%
% of control ([6]; at 10 µM): 59%
% of control ([7]; at 1 µM): 98%
% of control ([7]; at 10 µM): 100%

O[C@H]1CC[C@H](Nc2ncc3nc(Nc4c(F)cc(F)cc4F)n([C@H]4CCOC4)c3n2)CC1
% of control [8]: 78%

N#Cc1cccc(-c2c[nH]c3ncnc(N4CCOCC4)c23)c1
% of inhibition [9]: 79%

Cc1cc(F)c(C(=O)Nc2cccc(-c3nncn3C(C)C)n2)cc1-n1cnc(C2CC2)c1
% of control [10]: 90%

Cn1cc(-n2cnc3c(NCc4nc5cc(Cl)c(Cl)cc5[nH]4)nc(N4CCOCC4)nc32)cn1
% of control [11]: 5.65%
